According to patent publication EP1733758A1, “Methods for administration of a farnesyl dibenzodiazepinone” (Ecopia Biosciences Inc., priority 2005, dated 2006):

Key:
[1] = test system: rat glioma (C6) tumor xenograft; assay: Rat C6 glioblastoma subcutaneous tumor xenograft antitumor efficacy study; type: in vivo, female athymic (nu/nu) nude mice; conditions: for %TGI: analyzed at Day 18, P < 0.0001
Experimental: The rat C6 glioblastoma antitumor efficacy study was performed at INSERM U318 (Grenoble, France). The rat C6 glioblastoma subcutaneous tumor model is based on the use of a rat C6 cell line obtained from a rat glial tumor induced by N-nitrosomethylurea (Benda et al. (1968), Science, vol 161, 370-371). These animal studies were done according to ethical guidelines of animal experimentation (Charte du comité d'éthique du CNRS, 2003) and the English "Guidelines for the welfare of animals in experimental neoplasia (Second Edition)" from the United Kingdom Coordinating Committee on Cancer Research (UKCCCR) (Workman et al. (1998), Br. J. Cancer, vol 77, no 1, 1-10). On each dosing day, Formula I stock solutions (24 and 40 mg/mL in 20% ethanol, 20% PEG-400 and 60% Tween 80) were diluted with sterile 5% dextrose in water (D5W) to prepare dosing solutions of 6 mg/mL and 10 mg/mL of Formula I in a vehicle consisting of 5% ethanol, 5% PEG-400, 15% Tween-80, and 75% D5W.
For the rat glioma antitumor efficacy study, female athymic (nu/nu) nude mice (6-7 weeks of age) were inoculated SC with 5 x 10^6 C6 cells (day 0). Tumor bearing animals were randomized (10 per group) when tumors were palpable (day 6). Group 1 (control group) received drug-free vehicle (5% ethanol, 5% PEG-400, 15% Tween-80, and 75% D5W) IP (5 mL/kg), once daily on days 6-18 (q1d x 13). Group 2 received Formula I (6 mg/mL) IP at 20 mg/kg, once daily on days 6 to 13 and then at 10 mg/kg once daily on days 14 to 18. Group 3 received Formula I (6 mg/mL) SC at 30 mg/kg, once daily on days 6 to 13 and then at 15 mg/kg once daily on days 14 to 18. Group 4 received Formula I (10 mg/mL) IV at 100 mg/kg q1d x 5 for 2 weeks. Each animal was euthanized when its tumor reached the predetermined endpoint size (∼2,500 mm^3) or at the end of the study (D18). Treatment period was over 13 days, from day 6 to day 18, post tumor cell inoculation. Tumor growth inhibition (TGI) was calculated on day 16 post tumor cell inoculation, at which time some animals from the vehicle control group had to be sacrificed due to tumor burden.
In this model and the models of Examples 3, 6 and 7, tumor growth was followed every other day by measuring tumor length (L) and width (W) using a calliper. Measurements were converted to tumor volumes (TV; mm^3) using the standard formula, TV = (L xW^2)/2. Tumor volume at day n was expressed as relative tumor volume (RTV) according to the following formula RTV = TVn / TV0, where TVn is the tumor volume at day n and TV0 is the tumor volume at day 0. The percentage of tumor growth inhibition (%TGI) was determined by 1 ― (mean RTV of treated group/ mean RTV of control group) x 100. […] Statistical analysis was calculated by the two-tailed unpaired t test using the Prism software. Animals were weighed at least twice weekly during and after treatment until completion of the study. The mice were examined frequently for overt signs of any adverse drug-related side effects.
When the time to endpoint (TTE) for each mouse was also calculated by the following equation: TTE = (log10(endpoint volume)−b)/(m) [formula] Where TTE is expressed in days, endpoint volume is in mm^3, b is the intercept, and m is the slope of the line obtained by linear regression of a log-transformed tumor data set. This value was used to determined % tumor growth delay (%TGD), defined as the increase in median TTE for a treatment group compared to the control group expressed in days, or as a percentage of the median TTE of the control group.

[2] = test system: human breast tumor (MDA-MB-231) xenografts; assay: Human MDA-MB-231 breast tumor xenograft efficacy; type: in vivo, HRLN female nude mice; conditions: for T/C / %T/C: day 21; for %T/C: P < 0.0001
Experimental: The antitumor activity of the compound of Formula I was further tested in a human MD-MB-231 breast cancer model in mice. HRLN female nude mice (8 weeks of age) were treated with 5x10^6 MDA-MB-231 tumor cells (SC) in the right flank. Animals were randomized (ten per group) when tumors reach an average size of 80 - 120 mg and treatment began according to the table below. For these studies, the compound of Formula I was formulated in 5% ethanol, 5% PEG-400, 15% Polysorbate 80, and 75% of water containing 5% dextrose.
Tumor measurements were taken twice weekly using calipers and were converted to tumor mass (in milligrams) using the formula: with^2 (mm) x length (mm) x 0.52. Body weights were also recorded twice weekly. Statistical analysis was done using the unpaired two-tailed Student's t test.

[3] = Maximum tolerated dose and tolerability of bolus administration in mice; type: in vivo; conditions: for MTD: mouse, in vivo
[4] = Acute toxicity of 24-hour CIV administration in monkeys; type: in vivo; conditions: infusion rate 2 mL/kg/hour

Q: For `CC(C)=CCC/C(C)=C/CC/C(C)=C/CN1C(=O)c2cccc(O)c2Nc2c(O)cc(O)cc21` [Formula I, 10-farnesyl-4,6,8-trihydroxy-dibenzodiazepin-11-one], which “Maximum body weight loss” value ([1]; IP 20 mg/kg (Q1D x 8) followed by 10 mg/kg (Q1D x 7), Day 13) is on record?
A: 15%

Q: What about the “difference in tumor volume relative to the vehicle control” value ([1]; IV bolus 100 mg/kg (Q1D x 5) over 2 weeks) of the same compound?
A: No significant difference

Q: And the body weight loss ([1]; IV group, 100 mg/kg q1d x 5 for 2 weeks)?
A: No significant body weight loss

Q: What about the “Maximum body weight loss” value ([1]; SC 30 mg/kg (Q1D x 8) followed by 15 mg/kg (Q1D x 7)) of the same compound?
A: 11%

Q: What about the “%TGI” value ([1]; daily bolus IP 20 then 10 mg/kg) of the same compound?
A: 66%

Q: And the “%TGI” value ([1]; daily bolus SC 30 then 15 mg/kg)?
A: 60%

Q: What about the T/C ([2]; IP 30 mg/kg every three days x 7, P = 0.0007) of the same compound?
A: 58%

Q: What about the “%T/C” value ([2]; SC 20 mg/kg everyday for 21 days) of the same compound?
A: 40%

Q: And the “%T/C” value ([2]; SC 30 mg/kg days 1 to 5, 8 to 12)?
A: 35%

Q: And the T/C ([2]; SC 50 mg/kg every three days x 7, P= 0.0019)?
A: 68%

Q: What about the antitumor activity ([2]; bolus intravenous treatment (100 mg/kg, 5/2/5/2/5)) of the same compound?
A: did not result in activity

Q: What about the tolerability finding ([3]; IP bolus dosing) of the same compound?
A: some intestinal occlusion

Q: And the tolerability finding ([3]; SC bolus dosing)?
A: swelling and thickening of the skin

Q: What about the MTD ([3]; IP bolus) of the same compound?
A: 20 mg/kg

Q: And the MTD ([3]; IV bolus)?
A: 200 mg/kg

Q: What about the MTD ([3]; SC bolus) of the same compound?
A: 30 mg/kg

Q: And the “acute toxicity / tolerability” value ([4]; 35 mg/kg)?
A: well tolerated

Q: What about the “acute toxicity / tolerability” value ([4]; 70 mg/kg) of the same compound?
A: well tolerated
